pIC50: −log10 of the molar value.
Experiments:
human CB1 receptor [1] = target: T1, human CB1 receptor (Homo sapiens, UniProt P21554); test: Functional cell-based assay, CB1 receptor mediated change in CRE β-gal expression (adenylate cyclase activity); set-up: expressed in transfected cells; host or cells: SK-NC cells [sic], pcDNA3-CRE β-gal and pcDNA3 CB-1 (human)
Excerpt: Functional Cell-Based Assay for CB1 or CB2 Agonist and Inverse Agonist Effects on Intra-Cellular Adenylate Cyclase Activity
The CB1 and CB2 receptors are G-protein coupled receptors (GPCR), which influence cell function via the Gi-protein. These receptors modulate the activity of intracellular adenylate cyclase, which in turn produces the intracellular signal messenger cyclic-AMP (cAMP).
At baseline, or during non-ligand bound conditions, these receptors are constitutively active and tonically suppress adenylate cyclase activity. The binding of an agonist causes further receptor activation and produces additional suppression of adenylate cyclase activity. The binding of an inverse agonist inhibits the constitutive activity of the receptors and results in an increase in adenylate cyclase activity.
By monitoring intracellular adenylate cyclase activity, the ability of compounds to act as agonists or inverse agonists can be determined.
Test compounds were evaluated in SK-NC cells which, using standard transfection procedures, were stably transfected with human cDNA for pcDNA3-CRE β-gal and pcDNA3 CB-1 (human) or pcDNA3 CB-2 (human). By expressing CRE β-gal, the cells produced β-galactosidase in response to CRE promoter activation by cAMP. Cells expressing CRE β-gal and either the human CB1 or CB2 receptor will produce less β-galactosidase when treated with a CB1/CB2 agonist and will produce more β-galactosidase when treated with a CB1/CB2 inverse agonist.
The cells were grown in 96-well plates under standard cell culture conditions at 37° C. in a 5% CO2 atmosphere. After 3 days, the media was removed and a test compound in media (wherein the media was supplemented with 2 mM L-glutamine, […] sodium pyruvate, 0.1% low fatty acid FBS (fetal bovine serum) and antibiotics) was added to the cell. The plates were incubated for 30 minutes at 37° C. and the plate cells were then treated with forskolin over a 4-6 hour period, then washed and lysed. The β-galactosidase activity was quantitated using commercially available kit reagents (Promega Corp. Madison, Wis.) and a Vmax Plate Reader (Molecular Devices, Inc).
For cells expressing CRE β-gal and the CB1 receptor, CB1 agonists reduced β-galactosidase activity in a dose-dependent manner and CB1 inverse agonists increased β-galactosidase activity in a dose-dependent manner.
The change in β-galactosidase activity was determined by setting a vehicle treated cell's activity value at 100% and expressing the β-galactosidase activity measured in a corresponding compound treated cell as a percent of the vehicle treated cell activity.
The EC50 and IC50 values for compounds tested were calculated by linear regression and were obtained from studies in which varying compound concentrations were used.
The EC50 values for compounds tested were calculated by linear regression and were obtained from studies in which varying compound concentrations were used. Where an EC50 was not obtained, test results are provided as percent inhibition at a test concentration of 1 μM. ^aTest value in IC50; indicates agonist activity.

human CB1 receptor [2] = target: T1, human CB1 receptor; test: Binding assay, cannabinoid CB1 receptor ([3H]-CP-55,940 displacement); set-up: expressed in transfected cells; host or cells: SK-N-MC cells, pcDNA3 CB-1 (human), semi-purified membranes; settings: read-out: CB1 binding percent inhibition; for inhibition at 1 µM: test concentration 1 μM (superscript b)
Method in brief: (§1)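 Displacement of 0.2 nM [3H]-CP-55,940 (non-specific: 10 uM WIN 55,212) was run on semi-purified membranes of transfected SK-N-MC cells carrying human CB-1 or CB-2, 90 min, 30° C, pH 7.5. Scintillation counting; IC50 by linear regression, else % inhibition at 0.2, 1 or 10 μM.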

human CB-2 receptor = target: T2, human CB-2 receptor (Homo sapiens, UniProt P34972); test: Binding assay, cannabinoid CB2 receptor ([3H]-CP-55,940 displacement)
T2 construct: expressed in transfected cells; host or cells: SK-N-MC cells, pcDNA3 CB-2 (human), semi-purified membranes
T2 sequence (P34972 whole entry): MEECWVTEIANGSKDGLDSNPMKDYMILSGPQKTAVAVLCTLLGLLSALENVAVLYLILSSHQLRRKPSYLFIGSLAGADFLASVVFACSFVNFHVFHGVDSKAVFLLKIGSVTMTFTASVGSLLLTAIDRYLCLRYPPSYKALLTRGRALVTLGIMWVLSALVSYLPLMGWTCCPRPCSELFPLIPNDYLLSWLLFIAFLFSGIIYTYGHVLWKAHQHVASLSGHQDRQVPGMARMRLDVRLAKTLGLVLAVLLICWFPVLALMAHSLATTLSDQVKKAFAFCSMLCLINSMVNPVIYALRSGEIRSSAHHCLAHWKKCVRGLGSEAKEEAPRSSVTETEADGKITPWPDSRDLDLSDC
Method in brief: as §1

T1 sequence (P21554 whole entry): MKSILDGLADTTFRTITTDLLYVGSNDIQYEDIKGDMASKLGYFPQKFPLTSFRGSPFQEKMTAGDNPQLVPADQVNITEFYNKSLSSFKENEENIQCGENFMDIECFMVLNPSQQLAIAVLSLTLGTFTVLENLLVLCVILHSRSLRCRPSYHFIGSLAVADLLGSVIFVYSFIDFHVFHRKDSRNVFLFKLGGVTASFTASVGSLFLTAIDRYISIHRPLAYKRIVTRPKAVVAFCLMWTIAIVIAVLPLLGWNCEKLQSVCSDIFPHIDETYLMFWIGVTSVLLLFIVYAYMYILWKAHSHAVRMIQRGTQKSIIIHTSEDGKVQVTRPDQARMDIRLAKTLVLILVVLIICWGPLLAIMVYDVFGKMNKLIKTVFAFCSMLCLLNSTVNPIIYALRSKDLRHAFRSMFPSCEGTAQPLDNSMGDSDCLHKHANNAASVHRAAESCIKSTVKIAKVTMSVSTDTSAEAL

| Compound | pIC50 (human CB1 receptor [1]) | inhibition at 1 µM (human CB1 receptor [2]) [%] | pIC50 (human CB-2 receptor) | inhibition at 1 µM (human CB1 receptor [1]; test concentration 1 μM, where an EC50 was not obtained, read-out: CB1 functional percent inhibition) [%] | inhibition at 10 µM (human CB1 receptor [2]; test concentration 10 μM (superscript c)) [%] |
| --- | --- | --- | --- | --- | --- |
| CC12CCC(C1)C(C)(C)C2NC(=O)c1nn(Cc2ccccc2)c2c1C[S+]([O-])CC2 (stereo not shown) [Cpd 21, 1-benzyl-5-oxo-4,5,6,7-tetrahydro-1H-5λ^4-thiopyrano[4,3-c]pyrazole-3-carboxylic acid (1,3,3-trimethyl-bicyclo[2.2.1]hept-2-yl)-amide] | 5.20 | 53 | 7.25 |  |  |
| C[C@@H](NC(=O)/C=C/c1nn(Cc2ccccc2)c2c1CSCC2)c1ccccc1 [Cpd 33, (2E)-3-(1-benzyl-1,4,6,7-tetrahydro-thiopyrano[4,3-c]pyrazol-3-yl)-N-[(1R)-1-phenyl-ethyl]-acrylamide] |  | 35 | 5.17 | 24 | 9 |

Source: patent US7524964B2, “Tetrahydrothiopyrano pyrazole cannabinoid modulators” (Janssen Pharmaceutica NV, priority 2005, dated 2009)
